Data as given in patent publication US20200171065A1, “METHOD FOR TREATING LIVER DISEASE WITH KINSENOSIDE” (HUAZHONG UNIVERSITY OF SCIENCE AND TECHNOLOGY, priority 2017, published 2020).
Entries after “also recorded” stand apart in the source; their conditions may differ. Like-named read-outs stand apart in the source and are kept apart here.

Columns and labels:
[1] = tested on: hepatic stellate cells (HSC-T6) activated by TGF-β1; test: Hepatic stellate cells (HSC-T6) activated by TGF-β1; format: cell-based; conditions: different concentrations of KD
Excerpt: HSCs are important cells involved in liver fibrosis. The activation of HSCs is a key element of the development of liver fibrosis, and its apoptosis can reverse liver fibrosis. Different concentrations of KD were used to […] the hepatic stellate cells (HSC-T6) activated by TGF-β1.

[2] = tested on: SD mice with ANIT induced intrahepatic cholestasis; test: ANIT-induced intrahepatic cholestasis; format: in vivo
Method: 42 SPF SD mice were purchased and raised in the SPF experimental animal center of Tongji Medical College of Huazhong University of Science and Technology. They were provided with standard diet and drinking water. The room temperature was controlled at 23±2° C. After 3 days of adaptive feeding, they were given drugs by intragastric administration. 42 SD mice were randomly divided into 7 groups (normal control group, ANIT model group, KD low-dose group, KD medium dose group, KD high-dose group, UDCA positive control group and KD negative control group), 6 mice in each group were weighed and recorded daily. […] Thereafter, the drug was given again every 24 hours for 3 times, and the animals in each group were fasted (water was provided) after the third time. 72 hours later, the animals were killed and samples were collected.

[3] = tested on: C57BL/6J mice with alcoholic liver fibrosis; test: Alcoholic liver fibrosis (Lieber-DeCarli liquid diet + CCl4); format: in vivo
Method: C57BL/6J mice aged 8 weeks were raised in the SPF experimental animal center of Tongji Medical College of Huazhong University of Science and Technology. They were provided with standard diet and drinking water. The room temperature was controlled at 23±2° C. After 7 days of adaptive feeding, they were given drugs by intragastric administration.
The mice were fed with a 5% alcoholic Lieber-DeCarli liquid diet and intraperitoneal injection of CCl4 (CCl4 was intraperitoneally injected twice a week for the last four weeks). The mice were developed alcoholic fatty liver disease. The mice were administered with alcohol and drugs. Spherically, drinking water were administered to the control group and the model group, and different doses were administered to the dose groups.

[4] = tested on: FVB/N mice with serine/threonine kinase (AKT) overexpressed in the liver (NAFL-NASH-liver fibrosis); conditions: for Diameter of hepatic portal vein / Diameter of inferior vena cava / Length of the spleen / Oblique diameter of right lobe of liver / Thickness of the left lobe of liver / Thickness of the spleen: type B ultrasound
Method: The serine/threonine kinase (AKT) and transposase plasmids were injected into the liver of the mice by a transposition system through hydrodynamics. The serine/threonine kinase was specifically overexpressed in the liver, and the mice except the control group were modeled. One week later, nonalcoholic fatty liver (NAFL) was formed; two weeks later, steatohepatitis (NASH) was formed; and four weeks later, a primary hepatic fibrosis model was established. In the formation of NAFL-NASH-liver fibrosis, the therapeutic effect of KD was observed.

[5] = Liver fibrosis stage, KD 30 mg/kg
[6] = high, medium and low dose groups

O=C1C[C@@H](O[C@@H]2O[C@H](CO)[C@@H](O)[C@H](O)[C@H]2O)CO1 [KD]
apoptosis of HSC-T6 [1]: promote its apoptosis
cell cycle of HSC-T6 [1]: could block the cell cycle of the HSC-T6 in the G0/G1 phase
proliferation of HSC-T6 [1]: inhibit its proliferation
plasma biochemical indexes ([2]; 100 mg/kg KD to normal mice): did not change
plasma color ([2]; KD 50, 100, 200 mg/kg or UDCA 80 mg/kg by gavage): turned light yellow similar to that of the normal control group
expression of Fxr and Cyp7a1 genes ([2]; cholestasis mice, high-dose KD): can significantly up regulate the expression of Fxr and Cyp7a1 genes
expression of Bsep, Mrp2 and Mrp3 genes ([2]; cholestasis mice, medium and high-dose KD): can significantly up regulate the expression of Bsep, Mrp2 and Mrp3 genes
hepatic sinusoid and inflammatory cell infiltration (HE staining) ([2]; different doses of KD, UDCA treatment group): the expansion of hepatic sinusoid was improved and the infiltration of inflammatory cells was reduced
plasma ALT, AST, AKP, TBIL and DBIL ([2]; low, medium and high doses of KD, 80 mg/kg UDCA): can significantly reduce ALT, AST, AKP, TBIL and DBIL
plasma TBA ([2]; medium and high doses of KD, 80 mg/kg UDCA): can significantly reduce TBA
ANIT-induced intrahepatic cholestasis liver injury (overall) ([2]; mouse, in vivo): can alleviate the liver injury induced by ANIT; also recorded: has a good therapeutic effect on ANIT-induced intrahepatic cholestasis liver injury
fibrosis degree (Masson staining) ([3]; 40 and 20 mg/kg KD): can significantly reduce the degree of fibrosis in mice; also recorded: the fibrosis degree was reduced
inflammatory cells and Mallory bodies (H&E staining) ([3]; 40 and 20 mg/kg KD): the inflammatory cells in the KD group were reduced compared with the model group
SOD activity in the liver homogenate / oxidative stress injuries ([3]; ALF mice): increased the activity of superoxide dismutase (SOD) in the liver of AFL and ALF mice; also recorded: could reverse the oxidative stress injuries
serum ALT ([3]; ALF mice): decreased the serum alanine aminotransferase (ALT) of AFL and ALF mice; also recorded: decreased after KD treatment
secretion of TNF-α and IL-6 ([3]; high and medium dose groups): inhibited the secretion of TNF and IL6 in AFL and ALF; also recorded: reduced the secretion of the inflammatory cytokine TNF-α and IL-6
therapeutic effect on alcoholic liver fibrosis (overall) ([3]; mouse, in vivo): has a good therapeutic effect on alcoholic fatty liver and alcoholic liver fibrosis
liver histopathological damage (H&E staining) ([4]; 30, 20 and 10 mg/kg KD): could reduce liver histopathological damage
Diameter of hepatic portal vein [4, 5]: 0.65 ± 0.07 mm
Diameter of inferior vena cava [4, 5]: 1.15 ± 0.07 mm
Length of the spleen [4, 5]: 5.40 ± 0.71 mm
Oblique diameter of right lobe of liver [4, 5]: 8.35 ± 0.78 mm
Thickness of the left lobe of liver [4, 5]: 3.65 ± 0.49 mm
Thickness of the spleen [4, 5]: 1.50 ± 0.14 mm
Diameter of hepatic portal vein ([4]; NAFL stage, KD 30 mg/kg): 0.75 ± 0.07 mm
Diameter of inferior vena cava ([4]; NAFL stage, KD 30 mg/kg): 1.50 ± 0.14 mm
Length of the spleen ([4]; NAFL stage, KD 30 mg/kg): 5.40 ± 0.99 mm
Oblique diameter of right lobe of liver ([4]; NAFL stage, KD 30 mg/kg): 7.25 ± 0.21 mm
Thickness of the left lobe of liver ([4]; NAFL stage, KD 30 mg/kg): 4.35 ± 1.20 mm
Thickness of the spleen ([4]; NAFL stage, KD 30 mg/kg): 1.65 ± 0.07 mm
IFN-γ ([4]; NASH, KD 10 mg/kg): 36.71 ± 0.32^ΔΔ pg/mL
IL-2 ([4]; NASH, KD 10 mg/kg): 101.31 ± 9.79^##Δ pg/mL
IL-10 ([4]; NASH, KD 10 mg/kg): 66.84 ± 2.73 pg/mL
IL-12 ([4]; NASH, KD 10 mg/kg): 127.64 ± 2.71 pg/mL
NO ([4]; NASH, KD 10 mg/kg): 56.22 ± 5.32^ΔΔ μmol/L
TNF-α ([4]; NASH, KD 10 mg/kg): 4.10 ± 0.04 pg/mL
IFN-γ ([4]; NASH, KD 20 mg/kg): 33.86 ± 0.65 pg/mL
IL-2 ([4]; NASH, KD 20 mg/kg): 133.29 ± 4.57 pg/mL
IL-10 ([4]; NASH, KD 20 mg/kg): 84.12 ± 0.23^##ΔΔ pg/mL
IL-12 ([4]; NASH, KD 20 mg/kg): 123.05 ± 0.71 pg/mL
NO ([4]; NASH, KD 20 mg/kg): 51.38 ± 1.08^#ΔΔ μmol/L
TNF-α ([4]; NASH, KD 20 mg/kg): 3.03 ± 0.26^##ΔΔ pg/mL
IFN-γ ([4]; NASH, KD 30 mg/kg): 32.43 ± 0.98 pg/mL
IL-2 ([4]; NASH, KD 30 mg/kg): 169.13 ± 13.10^##Δ pg/mL
IL-10 ([4]; NASH, KD 30 mg/kg): 91.20 ± 0.56^##ΔΔ pg/mL
IL-12 ([4]; NASH, KD 30 mg/kg): 106.38 ± 1.18^##Δ pg/mL
NO ([4]; NASH, KD 30 mg/kg): 48.15 ± 1.86^##ΔΔ μmol/L
TNF-α ([4]; NASH, KD 30 mg/kg): 2.35 ± 0.10^##ΔΔ pg/mL
serum ALT and AST ([4]; during development of liver fibrosis): decreased after KD treatment
expression of MMP-13 in the liver (qPCR) [4, 6]: promoted the expression of matrix metalloproteinase-13 (MMP-13)
expression of α-SMA, Col I and TIMP-1 in the liver (qPCR) [4, 6]: could effectively inhibit the expression
release of inflammatory response marker NO [4, 6]: inhibited the release of the inflammatory response marker NO
secretion of IL-10 (Th2-type cells) [4, 6]: promoted the secretion of the inflammatory cytokine IL-10
secretion of inflammatory cytokines IFN-γ, TNF-α and IL-2 (Th1) [4, 6]: reduced the secretion of the inflammatory cytokines IFN-γ, TNF-α and IL-2
width of the inferior vena cava, left lobe thickness, right lobe obliquity and spleen thickness (ultrasound) ([4]; high, middle and low dose groups): can significantly reduce the width of the inferior vena cava, left lobe thickness, right lobe obliquity and spleen thickness
IFN-γ ([4]; liver fibrosis, KD 10 mg/kg): 85.76 ± 8.25 pg/mL
IL-2 ([4]; liver fibrosis, KD 10 mg/kg): 101.73 ± 0.70^##ΔΔ pg/mL
IL-10 ([4]; liver fibrosis, KD 10 mg/kg): 128.28 ± 24.84 pg/mL
IL-12 ([4]; liver fibrosis, KD 10 mg/kg): 253.62 ± 7.20 pg/mL
NO ([4]; liver fibrosis, KD 10 mg/kg): 52.13 ± 1.40 µmol/L
TNF-α ([4]; liver fibrosis, KD 10 mg/kg): 13.46 ± 9.31^ΔΔ pg/mL
IFN-γ ([4]; liver fibrosis, KD 20 mg/kg): 57.19 ± 1.65^##ΔΔ pg/mL
IL-2 ([4]; liver fibrosis, KD 20 mg/kg): 104.72 ± 0.71^##ΔΔ pg/mL
IL-10 ([4]; liver fibrosis, KD 20 mg/kg): 206.66 ± 1.91^##ΔΔ pg/mL
IL-12 ([4]; liver fibrosis, KD 20 mg/kg): 174.77 ± 2.72 pg/mL
NO ([4]; liver fibrosis, KD 20 mg/kg): 54.11 ± 15.40 µmol/L
TNF-α ([4]; liver fibrosis, KD 20 mg/kg): 8.41 ± 0.52 pg/mL
IFN-γ ([4]; liver fibrosis, KD 30 mg/kg): 53.38 ± 1.65^##ΔΔ pg/mL
IL-2 ([4]; liver fibrosis, KD 30 mg/kg): 93.91 ± 2.05^##ΔΔ pg/mL
IL-10 ([4]; liver fibrosis, KD 30 mg/kg): 140.44 ± 7.64 pg/mL
IL-12 ([4]; liver fibrosis, KD 30 mg/kg): 242.08 ± 5.44 pg/mL
NO ([4]; liver fibrosis, KD 30 mg/kg): 59.06 ± 1.40 µmol/L
TNF-α ([4]; liver fibrosis, KD 30 mg/kg): 2.38 ± 0.57 pg/mL
fiber formation (Masson staining) ([4]; mouse, in vivo): had inhibitory effect on the fiber formation
oxidative stress injuries (MDA, SOD) ([4]; mouse, in vivo): could reverse these oxidative stress injuries
secretion of ALT, AST and inflammatory cytokines ([4]; mouse, in vivo): did not affect the secretion of ALT, AST and inflammatory cytokines
shear wave velocity of SWE (liver) ([4]; mouse, in vivo): could significantly reduce the shear wave velocity
